This is an account of results in patent publication US20240409585A1, “MACROCYCLIC IMMUNOMODULATORS” (priority 2021, published 2024).

Numbered stars: 1 amine (or outer) side, 2 acyl side, 3 side chain; on linkers, the order of the positions; unused ones are H or OH. Bridge positions count the residues as written; N and C are the ends. Square brackets hold non-standard residues; d marks the D form. Peptide text beside a SMILES is read from it. * marks the point of attachment. ξ: configuration not given here. X22 = NC(=O)c1cccc(-c2ccc(C[C@H](N[*:1])C(=O)[*:2])cc2)c1; Phe(4-CONH2) = NC(=O)c1ccc(C[C@H](N)C(=O)O)cc1; Phe(4-COOH) = N[C@@H](Cc1ccc(C(=O)O)cc1)C(=O)O; Phe(4-CH2NH2) = NCc1ccc(C[C@H](N)C(=O)O)cc1; Bip = N[C@@H](Cc1ccc(-c2ccccc2)cc1)C(=O)O; Phe(3-OMe) = COc1cccc(C[C@H](N)C(=O)O)c1; Phe(4-CN) = N#Cc1ccc(C[C@H](N)C(=O)O)cc1; Phe(3-Me) = Cc1cccc(C[C@H](N)C(=O)O)c1; Bta = N[C@@H](Cc1csc2ccccc12)C(=O)O; Val(3-OH) = CC(C)(O)[C@H](N)C(=O)O; 4Pal = N[C@@H](Cc1ccncc1)C(=O)O; Cha = N[C@@H](CC1CCCCC1)C(=O)O; Cit = NC(=O)NCCC[C@H](N)C(=O)O; Ile(3ξ) = CCC(C)[C@H](N)C(=O)O; Thr(3ξ) = CC(O)[C@H](N)C(=O)O; ξ4Pal = NC(Cc1ccncc1)C(=O)O; Carboxymethyl = O=C(O)C*; NMeA = CN[C@@H](C)C(=O)O; Orn = NCCC[C@H](N)C(=O)O; Dab = NCC[C@H](N)C(=O)O; Dap = NC[C@H](N)C(=O)O; Ac3c = NC1(C(=O)O)CC1

One may read the IC50 as the concentration at which inhibition is half-maximal.

The target in this assay is T1, PE-labeled human PD-L1-Ig binding to Jurkat cell line over-expressing human PD-1 (Jurkat-PD-1) (Homo sapiens, UniProt Q15116).
T1 construct: expressed in transfected cells; host or cells: Jurkat
T1 sequence (Q15116 25-288): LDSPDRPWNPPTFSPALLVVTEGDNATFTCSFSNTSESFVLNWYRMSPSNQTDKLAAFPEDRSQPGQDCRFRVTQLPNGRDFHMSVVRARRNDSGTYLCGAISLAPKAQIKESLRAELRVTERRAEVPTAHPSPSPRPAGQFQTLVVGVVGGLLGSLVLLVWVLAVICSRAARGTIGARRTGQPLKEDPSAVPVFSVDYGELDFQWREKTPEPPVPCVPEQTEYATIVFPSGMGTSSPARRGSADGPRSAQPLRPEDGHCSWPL
In words: Jurkat-PD-1 Cell Binding High-Content Screening Assay (CBA): Method 1. To be noted: Jurkat-hPD-1 cells, PE-labeled PD-L1-Ig 20 nM final; read-out: Jurkat HPDL1 PD1 IC50 (uM) (Method 1).
Regarding `CCC(C)[C@@H]1NC(=O)[C@H](Cc2ccc(-c3ccccc3)cc2)NC(=O)[C@H](CC(C)C)NC(=O)[C@H](Cc2c[nH]c3ccccc23)NC(=O)[C@H](CC(=O)O)NC(=O)[C@H](Cc2ccc(C(=O)O)cc2)NC(=O)[C@H](Cc2ccc(OCC(=O)O)cc2)NC(=O)CSC[C@@H](C(=O)N[C@@H](CCN)C(N)=O)NC(=O)[C@H](CCC(N)=O)NC(=O)[C@H](C(C)C)NC(=O)[C@H](CC2CCCCC2)NC(=O)[C@H](CCN)NC(=O)[C@@H](CC(C)C)NC(=O)[C@H](C)N(C)C1=O` (stereo partly drawn) [Compound 1927] ({CH2CO}-Y(Carboxymethyl)[Phe(4-COOH)]DWL[Bip][Ile(3ξ)][NMeA][dL][Dab][Cha]VQC[Dab]-NH2; thioether N-14), the IC50 turned out to be 0.01 µM.
In the case of `Cc1cccc(C[C@@H]2NC(=O)[C@H](CC(=O)O)NC(=O)[C@H](Cc3ccc(OCC(=O)O)cc3)NC(=O)[C@H](C(C)O)NC(=O)CSC[C@@H](C(=O)N[C@@H](CCN)C(N)=O)NC(=O)[C@H](CO)NC(=O)[C@H](C(C)(C)O)NC(=O)[C@H](CC3CCCCC3)NC(=O)[C@H](CCN)NC(=O)[C@@H](CC(C)C)NC(=O)[C@H](C)N(C)C(=O)[C@H](Cc3ccc(OCC(=O)O)cc3)NC(=O)[C@H](Cc3ccc(-c4ccccc4)cc3)NC(=O)[C@H](Cc3ccc(OCC(=O)O)cc3)NC2=O)c1` (stereo partly drawn) [Compound 2149] ({CH2CO}-[Thr(3ξ)]Y(Carboxymethyl)D[Phe(3-Me)]Y(Carboxymethyl)[Bip]Y(Carboxymethyl)[NMeA][dL][Dab][Cha][Val(3-OH)]SC[Dab]-NH2; thioether N-14) it was 0.02 µM.
The figure for `CC(C)C[C@@H]1NC(=O)[C@H](Cc2c[nH]c3ccccc23)NC(=O)[C@H](CC(=O)O)NC(=O)[C@H](Cc2ccc(O)cc2)NC(=O)[C@H](Cc2ccccc2)NC(=O)CSC[C@@H](C(=O)N[C@@H](C)C(N)=O)NC(=O)[C@H](CO)NC(=O)[C@H](C(C)C)NC(=O)[C@H](CC(C)C)NC(=O)[C@H](CC(=O)O)NC(=O)[C@@H](C)NC(=O)[C@H](C)N(C)C(=O)[C@H](C(C)C)NC(=O)[C@H](Cc2ccc(-c3cccc(C(N)=O)c3)cc2)NC1=O` [Compound 1830] ({CH2CO}-FYDWL[X22]V[NMeA][dA]DLVSCA-NH2; thioether N-14) is 0.9 µM; for `CCC(C)[C@@H]1NC(=O)[C@H](Cc2ccc(-c3ccccc3)cc2)NC(=O)[C@H](C(C)C)NC(=O)[C@H](Cc2c[nH]c3ccccc23)NC(=O)[C@H](CC(=O)O)NC(=O)[C@H](Cc2ccc(O)cc2)NC(=O)[C@H](Cc2ccncc2)NC(=O)CSC[C@@H](C(=O)N[C@@H](C)C(N)=O)NC(=O)[C@H](C(C)O)NC(=O)[C@H](C(C)C)NC(=O)[C@H](CC2CCCCC2)NC(=O)[C@H](Cc2ccc(CN)cc2)NC(=O)[C@@H](CC(C)C)NC(=O)[C@H](C)N(C)C1=O` (stereo partly drawn) [Compound 2049] ({CH2CO}-[4Pal]YDWV[Bip][Ile(3ξ)][NMeA][dL][Phe(4-CH2NH2)][Cha]V[Thr(3ξ)]CA-NH2; thioether N-14) it is 0.09 µM.
In the case of `Cc1cccc(C[C@@H]2NC(=O)[C@H](CC(=O)O)NC(=O)[C@H](Cc3ccc(C(=O)O)cc3)NC(=O)[C@H](Cc3ccncc3)NC(=O)CSC[C@@H](C(=O)N[C@@H](C)C(N)=O)NC(=O)[C@H]([C@@H](C)O)NC(=O)[C@H](C(C)C)NC(=O)[C@H](CC(C)C)NC(=O)[C@H](CCN)NC(=O)[C@@H](CC(C)C)NC(=O)[C@H](C)N(C)C(=O)[C@H](C(C)C)NC(=O)[C@H](Cc3ccc(-c4ccccc4)cc3)NC(=O)[C@H](C(C)C)NC2=O)c1` [Compound 1420] ({CH2CO}-[4Pal][Phe(4-COOH)]D[Phe(3-Me)]V[Bip]V[NMeA][dL][Dab]LVTCA-NH2; thioether N-14) it was 0.01 µM; in that of `Cc1cccc(C[C@@H]2NC(=O)[C@H](CC(=O)O)NC(=O)[C@H](Cc3ccc(OCC(=O)O)cc3)NC(=O)C(Cc3ccncc3)NC(=O)CSC[C@@H](C(=O)NC3(C(N)=O)CC3)NC(=O)[C@H](CO)NC(=O)[C@H](C(C)C)NC(=O)[C@H](CC3CCCCC3)NC(=O)[C@H](CCN)NC(=O)[C@@H](CC(C)C)NC(=O)[C@H](C)N(C)C(=O)[C@H](Cc3ccc(OCC(=O)O)cc3)NC(=O)[C@H](Cc3ccc(-c4ccccc4)cc3)NC(=O)[C@H](Cc3ccc(OCC(=O)O)cc3)NC2=O)c1` (stereo partly drawn) [Compound 1863] ({CH2CO}-[ξ4Pal]Y(Carboxymethyl)D[Phe(3-Me)]Y(Carboxymethyl)[Bip]Y(Carboxymethyl)[NMeA][dL][Dab][Cha]VSC[Ac3c]-NH2; thioether N-14), 0.01 µM.
As to `Cc1cccc(C[C@@H]2NC(=O)[C@H](CC(=O)O)NC(=O)[C@H](Cc3ccc(O)cc3)NC(=O)[C@H](CC(N)=O)NC(=O)CSC[C@@H](C(=O)N[C@H](C)C(N)=O)NC(=O)[C@H](CCC(=O)O)NC(=O)[C@H](C(C)(C)O)NC(=O)[C@H](CC3CCCCC3)NC(=O)[C@H](CCN)NC(=O)[C@@H](CC(C)C)NC(=O)[C@H](C)N(C)C(=O)[C@H](CCCNC(N)=O)NC(=O)[C@H](Cc3ccc(-c4ccccc4)cc3)NC(=O)[C@H](C(C)(C)O)NC2=O)c1` [Compound 1712] ({CH2CO}-NYD[Phe(3-Me)][Val(3-OH)][Bip][Cit][NMeA][dL][Dab][Cha][Val(3-OH)]EC[dA]-NH2; thioether N-14), the IC50 is 0.24 µM.
For the molecule `Cc1cccc(C[C@@H]2NC(=O)[C@H](CC(=O)O)NC(=O)[C@H](Cc3ccc(OCC(=O)O)cc3)NC(=O)[C@H](CN)NC(=O)CSC[C@@H](C(N)=O)NC(=O)[C@H](CC(N)=O)NC(=O)[C@H](C(C)C)NC(=O)[C@H](CC3CCCCC3)NC(=O)[C@H](CCN)NC(=O)[C@@H](CC(C)C)NC(=O)[C@H](C)N(C)C(=O)[C@H](Cc3ccc(OCC(=O)O)cc3)NC(=O)[C@H](Cc3ccc(-c4ccccc4)cc3)NC(=O)[C@H](Cc3ccc(OCC(=O)O)cc3)NC2=O)c1` [Compound 1648] ({CH2CO}-[Dap]Y(Carboxymethyl)D[Phe(3-Me)]Y(Carboxymethyl)[Bip]Y(Carboxymethyl)[NMeA][dL][Dab][Cha]VNC-NH2; thioether N-14), the half-inhibitory concentration (IC50) turned out to be 0.03 µM.
The figure for `CC(C)C[C@@H]1NC(=O)[C@H](CCN)NC(=O)[C@@H](CC(C)C)NC(=O)[C@H](C)N(C)C(=O)[C@H](CCCNC(N)=O)NC(=O)[C@H](Cc2ccc(-c3ccccc3)cc2)NC(=O)[C@H](C(C)C)NC(=O)[C@H](Cc2c[nH]c3ccccc23)NC(=O)[C@H](CC(=O)O)NC(=O)[C@H](Cc2ccc(C#N)cc2)NC(=O)[C@H](Cc2ccncc2)NC(=O)CSC[C@@H](C(=O)N[C@@H](C)C(N)=O)NC(=O)[C@H]([C@@H](C)O)NC(=O)[C@H](C(C)C)NC1=O` [Compound 1402] ({CH2CO}-[4Pal][Phe(4-CN)]DWV[Bip][Cit][NMeA][dL][Dab]LVTCA-NH2; thioether N-14) is 0.02 µM; for `CC(C)C[C@@H]1NC(=O)[C@H](CCN)NC(=O)[C@H](Cc2csc3ccccc23)NC(=O)[C@H](C)N(C)C(=O)[C@H](CCCN)NC(=O)[C@H](Cc2ccc(-c3ccccc3)cc2)NC(=O)[C@H](C(C)C)NC(=O)[C@H](Cc2c[nH]c3ccccc23)NC(=O)[C@H](CC(=O)O)NC(=O)[C@H](Cc2ccc(O)cc2)NC(=O)[C@H](Cc2ccccc2)NC(=O)CSC[C@@H](C(=O)N[C@@H](C)C(N)=O)NC(=O)[C@H]([C@@H](C)O)NC(=O)[C@H](C(C)C)NC1=O` [Compound 1122] ({CH2CO}-FYDWV[Bip][Orn][NMeA][Bta][Dab]LVTCA-NH2; thioether N-14) it is 0.24 µM.
The figure for `CC(C)C[C@@H]1NC(=O)[C@H](Cc2c[nH]c3ccccc23)NC(=O)[C@H](CC(=O)O)NC(=O)[C@H](Cc2ccc(C(=O)O)cc2)NC(=O)[C@H](Cc2ccc(OCC(=O)O)cc2)NC(=O)CSC[C@@H](C(=O)N[C@@H](CCN)C(N)=O)NC(=O)[C@H](CO)NC(=O)[C@H](C(C)(C)O)NC(=O)[C@H](CC2CCCCC2)NC(=O)[C@H](CCN)NC(=O)[C@@H](CC(C)C)NC(=O)[C@H](C)N(C)C(=O)[C@H](C(C)(C)O)NC(=O)[C@H](Cc2ccc(-c3ccccc3)cc2)NC1=O` [Compound 1716] ({CH2CO}-Y(Carboxymethyl)[Phe(4-COOH)]DWL[Bip][Val(3-OH)][NMeA][dL][Dab][Cha][Val(3-OH)]SC[Dab]-NH2; thioether N-14) is 0.01 µM; for `COc1cccc(C[C@@H]2NC(=O)[C@H](CC(=O)O)NC(=O)[C@H](Cc3ccc(O)cc3)NC(=O)[C@H](CC(N)=O)NC(=O)CSC[C@@H](C(=O)N[C@@H](C)C(N)=O)NC(=O)[C@H]([C@@H](C)O)NC(=O)[C@H](C(C)C)NC(=O)[C@H](CC(C)C)NC(=O)[C@H](CCN)NC(=O)[C@@H](CC(C)C)NC(=O)[C@H](C)N(C)C(=O)[C@H](C(C)C)NC(=O)[C@H](Cc3ccc(-c4ccccc4)cc3)NC(=O)[C@H](C(C)C)NC2=O)c1` [Compound 1277] ({CH2CO}-NYD[Phe(3-OMe)]V[Bip]V[NMeA][dL][Dab]LVTCA-NH2; thioether N-14) it is 0.02 µM; for `Cc1cccc(C[C@@H]2NC(=O)[C@H](CC(=O)O)NC(=O)[C@H](Cc3ccc(C(N)=O)cc3)NC(=O)[C@H](Cc3ccncc3)NC(=O)CSC[C@@H](C(=O)N[C@@H](CCN)C(N)=O)NC(=O)[C@H](CO)NC(=O)[C@H](C(C)(C)O)NC(=O)[C@H](CC3CCCCC3)NC(=O)[C@H](CCN)NC(=O)[C@@H](CC(C)C)NC(=O)[C@H](C)N(C)C(=O)[C@H](Cc3ccc(OCC(=O)O)cc3)NC(=O)[C@H](Cc3ccc(-c4ccccc4)cc3)NC(=O)[C@H](Cc3ccc(OCC(=O)O)cc3)NC2=O)c1` [Compound 2138] ({CH2CO}-[4Pal][Phe(4-CONH2)]D[Phe(3-Me)]Y(Carboxymethyl)[Bip]Y(Carboxymethyl)[NMeA][dL][Dab][Cha][Val(3-OH)]SC[Dab]-NH2; thioether N-14) it is 0.03 µM.
In the case of `CC[C@H](C)[C@@H]1NC(=O)[C@H](Cc2ccc(-c3ccccc3)cc2)NC(=O)[C@H](C(C)C)NC(=O)[C@H](Cc2cccc(C)c2)NC(=O)[C@H](CC(=O)O)NC(=O)[C@H](Cc2ccc(O)cc2)NC(=O)[C@H](CC(N)=O)NC(=O)CSC[C@@H](C(=O)N[C@@H](CCN)C(N)=O)NC(=O)[C@H]([C@@H](C)O)NC(=O)[C@H](C(C)(C)O)NC(=O)[C@H](CC(C)C)NC(=O)[C@H](CCN)NC(=O)[C@@H](CC(C)C)NC(=O)[C@H](C)N(C)C1=O` [Compound 1684] ({CH2CO}-NYD[Phe(3-Me)]V[Bip]I[NMeA][dL][Dab]L[Val(3-OH)]TC[Dab]-NH2; thioether N-14) it was 0.01 µM.
